Data on nine compounds can be found in ChEMBL document CHEMBL1127910, “Structural basis for the differential RXR & RAR activity of stilbene retinoid analogs” (Bioorg Med Chem Lett, 1994).

Each structure is given as a SMILES string. Some results are limits rather than exact numbers.

In assay [1] the target is T1, Retinoic acid receptor RXR-alpha (Homo sapiens, UniProt P19793).
T1 sequence (P19793 whole entry): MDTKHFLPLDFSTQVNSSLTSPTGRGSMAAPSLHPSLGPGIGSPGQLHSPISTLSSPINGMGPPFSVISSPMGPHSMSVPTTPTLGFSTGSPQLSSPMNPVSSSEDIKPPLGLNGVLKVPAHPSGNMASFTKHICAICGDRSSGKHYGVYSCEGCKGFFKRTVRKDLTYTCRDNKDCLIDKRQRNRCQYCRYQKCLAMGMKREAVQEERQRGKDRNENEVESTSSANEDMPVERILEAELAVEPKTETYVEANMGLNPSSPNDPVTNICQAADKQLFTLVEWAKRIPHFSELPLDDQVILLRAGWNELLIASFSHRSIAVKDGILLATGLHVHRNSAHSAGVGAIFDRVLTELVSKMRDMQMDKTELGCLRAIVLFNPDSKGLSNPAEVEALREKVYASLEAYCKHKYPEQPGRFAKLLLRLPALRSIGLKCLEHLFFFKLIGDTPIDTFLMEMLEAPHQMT
Nature of the assay: Transcriptional activation for RXR alpha receptor.

Assay [2] addresses T2, Retinoic acid receptor gamma (Homo sapiens, UniProt P13631).
T2 sequence (P13631 whole entry): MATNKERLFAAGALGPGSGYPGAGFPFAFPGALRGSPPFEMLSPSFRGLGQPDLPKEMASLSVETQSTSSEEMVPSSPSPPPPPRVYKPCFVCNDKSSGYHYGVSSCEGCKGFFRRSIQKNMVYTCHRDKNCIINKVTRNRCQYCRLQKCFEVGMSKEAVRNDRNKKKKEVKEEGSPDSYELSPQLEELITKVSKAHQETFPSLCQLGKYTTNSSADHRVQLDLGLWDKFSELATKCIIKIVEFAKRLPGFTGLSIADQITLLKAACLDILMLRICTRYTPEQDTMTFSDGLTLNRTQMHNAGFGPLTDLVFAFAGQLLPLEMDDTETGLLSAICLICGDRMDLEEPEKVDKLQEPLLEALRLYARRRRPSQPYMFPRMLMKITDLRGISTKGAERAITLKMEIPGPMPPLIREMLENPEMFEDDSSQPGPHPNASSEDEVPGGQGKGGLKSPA
Nature of the assay: Transcriptional activation for RAR gamma receptor; not active (EC50>10e4 nM).

The target in assay [3] is T3, Retinoic acid receptor beta (Homo sapiens, UniProt P10826).
T3 sequence (P10826 whole entry): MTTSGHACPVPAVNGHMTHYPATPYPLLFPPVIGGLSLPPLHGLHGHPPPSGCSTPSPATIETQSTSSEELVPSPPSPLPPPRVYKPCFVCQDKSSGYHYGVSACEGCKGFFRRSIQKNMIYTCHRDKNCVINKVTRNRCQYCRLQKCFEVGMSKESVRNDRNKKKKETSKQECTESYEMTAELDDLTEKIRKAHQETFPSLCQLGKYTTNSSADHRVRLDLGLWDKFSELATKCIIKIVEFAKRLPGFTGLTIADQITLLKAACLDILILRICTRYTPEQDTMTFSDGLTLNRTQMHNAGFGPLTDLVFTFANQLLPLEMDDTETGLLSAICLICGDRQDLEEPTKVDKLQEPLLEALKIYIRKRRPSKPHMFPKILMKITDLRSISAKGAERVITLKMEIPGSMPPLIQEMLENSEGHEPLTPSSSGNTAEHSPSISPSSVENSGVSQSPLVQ
Nature of the assay: Transcriptional activation for RAR beta receptor; not active (EC50>10e4 nM).

Assay [4] deals with T4, Retinoic acid receptor alpha (Homo sapiens, UniProt P10276).
T4 sequence (P10276 whole entry): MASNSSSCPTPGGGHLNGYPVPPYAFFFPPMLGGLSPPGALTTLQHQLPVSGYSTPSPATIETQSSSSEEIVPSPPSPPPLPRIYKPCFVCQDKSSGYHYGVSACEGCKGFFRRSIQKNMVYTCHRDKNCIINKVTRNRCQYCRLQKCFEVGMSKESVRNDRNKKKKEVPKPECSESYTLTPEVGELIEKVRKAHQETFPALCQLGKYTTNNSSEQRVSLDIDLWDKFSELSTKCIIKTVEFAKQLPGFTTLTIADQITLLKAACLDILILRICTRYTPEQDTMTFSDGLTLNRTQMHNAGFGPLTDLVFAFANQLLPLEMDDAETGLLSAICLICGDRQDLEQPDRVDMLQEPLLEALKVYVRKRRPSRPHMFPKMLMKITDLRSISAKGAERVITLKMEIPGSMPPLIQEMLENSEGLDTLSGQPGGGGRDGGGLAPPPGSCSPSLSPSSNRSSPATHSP
Description: Transcriptional activation for RAR alpha receptor; not active (EC50>10e4 nM).

The target of assay [5] is T2, Retinoic acid receptor gamma. Nature of the assay: Transcriptional activation for RAR gamma receptor.
Assay [6] has as its target T4, Retinoic acid receptor alpha. Description: Transcriptional activation for RAR alpha receptor.
For assay [7], the target named is T1, Retinoic acid receptor RXR-alpha.
In assay [8] the target is T3, Retinoic acid receptor beta. Nature of the assay: Transcriptional activation for RAR beta receptor.

The term EC50 denotes the concentration that produces a half-maximal response. A higher EC50 goes with weaker potency. Consider `CC(=Cc1ccc(C(=O)O)cc1)c1cc2c(cc1C)C(C)(C)CCC2(C)C`, for which the EC50 was above 6400 nM in assay [1], “Not Active” in assay [2], “Not Active” in assay [3] and “Not Active” in assay [4].
With `CC1(C)CCC(C)(C)c2cc(/C=C/c3ccc(C(=O)O)cc3)ccc21`, the EC50 in assay [5] was 0.4 nM; in assay [6], 11 nM; in assay [7], “Not Active”; in assay [8] it was 0.4 nM.
For `C/C(=C\c1ccc(C(=O)O)cc1)c1cc2c(cc1Cl)C(C)(C)CCC2(C)C`, the EC50 in assay [5] was 77 nM; in assay [1] it was 275 nM; in assay [6], above 1000 nM; in assay [8], 21 nM.
In the case of `C/C(=C\c1ccc2c(c1)C(C)(C)CCC2(C)C)c1ccc(C(=O)O)cc1`, the EC50 in assay [5] is 0.4 nM; in assay [6] it was 24 nM; in assay [7] it was “Not Active”; in assay [8] it was 0.5 nM.
With `Cc1cc2c(cc1/C=C/c1ccc(C(=O)O)cc1)C(C)(C)CCC2(C)C`, the EC50 in assay [5] is 1.4 nM; in assay [6], 15 nM; in assay [7], “Not Active”; in assay [8], 0.4 nM.
With `C/C(=C\c1ccc(C(=O)O)cc1)c1cc2c(cc1C)C(C)(C)CCC2(C)C`, the EC50 in assay [5] was found to be 152 nM; in assay [1], 385 nM; in assay [6], 4580 nM; in assay [8], 74 nM.
With `C/C(=C\c1ccc(C(=O)O)cc1)c1ccc2c(c1)C(C)(C)CCC2(C)C`, in assay [7], the EC50 result was “Not Active”.
Turning to `CCc1cc2c(cc1/C(C)=C/c1ccc(C(=O)O)cc1)C(C)(C)CCC2(C)C`, the EC50 in assay [5] is 195 nM; in assay [1], 2220 nM; in assay [8] it was 961 nM; in assay [4] it was “Not Active”.
On to `C/C(=C\c1ccc(C(=O)O)cc1)c1cc2c(cc1Br)C(C)(C)CCC2(C)C`, for which the EC50 stood at 91 nM in assay [5], 298 nM in assay [1], 989 nM in assay [6] and 21 nM in assay [8].
